Data reported in patent US20100035287A1, “Secreted Luciferase Fluorescent Protein Conjugate Nucleic Acid Construct and Uses Thereof” (THE GENERAL HOSPITAL CORPORATION, priority 2006, published 2010).

Experiments:
[1] = tested on: spliced XBP-1 mRNA, 293T cells; test: Real-time qRT-PCR for spliced XBP-1 mRNA; format: cell-based, human
Procedure: (§1) Fold induction is calculated with respect to the control non-infected/non-treated cells. […] Blot is also probed with Gluc antibody as well as alpha-tubulin antibody for equal loading. […] The mean±S.E.M. is presented on the graphs (n=3), with *p<0.01 as compared to the non-treated cells and as calculated by the student's t-Test. NS=not significant
ER stress: total RNA isolation, reverse transcription and real-time qPCR. 293T cells were plated at 1×10^6 cells/mL in a 12-well plate. Cells were treated with different concentrations of DTT (Sigma) for 4 h. Total RNA was isolated using the RNeasy mini kit (Quiagen, Valencia, Calif.) and concentration was determined by measuring the OD260 using a spectrophotometer (Bio-Rad, Hercules, Calif.). Reverse transcription was performed on 200 ng RNA (in 10 μl) at 37° C. for 60 min using an Omniscript reverse transcription kit (Quiagen). Two μL of each cDNA sample were used for real-time PCR. Biological triplicates were measured twice. The following primers were used: Forward 5′-[…]-3′ (SEQ ID NO: 10) and Reverse 5′-[…]-3′ (SEQ ID NO: 11). These primers were designed to span a 26 bp intron in the unspliced XBP1 mRNA [12]. […] The fold increase was calculated based on Ct values of treated cells relative to control non-infected and non-treated cells normalized to the values for GAPDH endogenous control.

BiP, 293T cells = test: Western blot for BiP; format: cell-based, human; conditions: DTT 0.03-2 mM, 24 h, dose dependent
Procedure: as §1
Western blot. Total cell lysates were prepared in lysis buffer containing 150 mM NaCl, 50 mM TRIS, pH 8.0, 1% NP-40, 0.5% deoxycholate, 0.1% SDS, and protease inhibitors (PI Complete; Boehringer Mannheim, Indianapolis, Ind.). Forty μg protein were electrophoresed in 12.5% SDS-polyacrylamide gels, and transferred to nitrocellulose membranes (Bio-Rad). […] Membranes were then incubated with horseradish peroxidase (HRP) conjugated to secondary antibodies: sheep anti-mouse IgG-HRP (1:10,000) or donkey anti-rabbit IgG-HRP (1:10,000) (Amersham Pharmacia Biotech, Piscataway, N.J.). For protein detection we used SuperSignal West Pico Chemiluminescent Substrate™ (Pierce, Rockford, Ill.).

[2] = tested on: ER stress (Gluc secretion), 293T cells; test: Real-time monitoring of ER stress with Gluc (Gluc activity in conditioned medium); format: cell-based, human
Procedure: Fold induction is calculated with respect to the control non-infected/non-treated cells. […] The mean±S.E.M. is presented on the graphs (n=3), with *p<0.01 as compared to the non-treated cells and as calculated by the student's t-Test. NS=not significant
Gaussia luciferase for monitoring of ER stress in real-time. Splicing of the XBP-1 mRNA to sXBP1 and expression of BiP protein are generally used as biomarkers for ER stress.

[3] = tested on: secretory pathway (Gluc secretion); test: Bioluminescence from media of Gluc expressing cells treated with secretory pathway inhibitors (FIG. 11); format: cell-based
Excerpt: Nocodazone disrupts microtubule function and BrefeldinA disrupts golgi function.
This confirms Gluc is being secreted the secretory pathway.

[4] = tested on: secretory pathway (Gluc secretion), 293T cells; test: Blocking of secretory pathway: Gluc activity in conditioned medium of drug-treated cells; format: cell-based, human; conditions: 24 h, 5 μg/ml BFA, 3 μg/ml monensin A, 10 μg/ml nocodazole, 5 μg/ml cytochalasin B
Procedure: Cells were treated for 24 h with different drugs which interfere with the secretory pathway. […] Scale bar, 10 μm. Luciferase activity. […] For Fluc detection, 450 μM Beetle D-luciferin (Molecular Imaging Products, Ann Arbor, Mich.) was added directly to the viable cells, in a 96 well plate and measured as above. The signal was measured for 10 sec and integrated over 2 sec in both cases. Blocking of secretory pathway.

[5] = tested on: secretory pathway (Gluc-YFP secretion); test: Gluc-YFP fusion: secretion and localization after BFA or nocodazole; format: cell-based, human; conditions: for secretion of Gluc-YFP luciferase activity: cells expressing Gluc-YFP, conditioned medium 24 h after treatment
Procedure: Blocking of secretory pathway. […] Forty-eight h post-infection, cells were treated with either 5 μg/ml BFA, 3 μg/ml monensin A (MonA), 10 μg/ml nocodazole (Noc) or 5 μg/ml cytochalasin B (CytB) all obtained from Sigma.

[6] = tested on: unfolded protein response (GRP78); test: Immunoblotting for GRP78, unfolded protein response (FIG. 12); format: cell-based; conditions: cells treated with tunicamycin
Procedure: Immunobloting for GRP76 of protein lysates from cells not expressing Gluc in the absence (untreated) or presence of tunicamycin, an agent which upregulates the UPR, compared with untreated cells expressing the Gluc-YFP conjugate protein.
To assess the effect of Gluc expression on cell physiology and to ask if Gluc expression triggers an ER stress response and/or induces the unfolded protein response (UPR), cells were treated with tunicamycin, an agent which upregulates the UPR in the presence or absence of Gluc expression.

| Molecule | bioluminescence from the media compared to untreated cells [3] | decrease of Gluc secretion into the conditioned medium [4] | secretion of Gluc-YFP luciferase activity [5] | further results |
| --- | --- | --- | --- | --- |
| O[C@H](CS)[C@H](O)CS (racemic) [DTT, dithiothreitol] | – | – | – | extent of XBP-1 mRNA splicing ([1]; DTT 0.03-2 mM, 4 h, dose dependent): increased; amount of BiP (BiP, 293T cells): increased; Gluc secretion in the conditioned medium over time ([2]; 1 mM DTT, real-time monitoring, started to recover after 4 h, normal level after 24 h): complete inhibition of secretion for the first 3 h; secretion of Gluc ([2]; DTT 0.03-2 mM, 4 h): decrease |
| C[C@H]1CCC/C=C/[C@@H]2C[C@H](O)C[C@H]2[C@H](O)/C=C/C(=O)O1 [BFA, brefeldinA] | reduced | about 90% | blocked to the same extent as for Gluc | localization of Gluc-YFP fusion protein ([5]; real-time confocal microscopy on live cells): trapped in the ER |
| C=C1[C@@H](C)[C@H]2[C@H](Cc3ccccc3)NC(=O)[C@]23OC(=O)/C=C/[C@H](O)CCC[C@@H](C)C/C=C/[C@H]3[C@@H]1O [cytochalasin B] | – | ~30% | – | – |
| CC[C@@]1([C@@H]2O[C@@H]([C@H]3O[C@@](O)(CO)[C@H](C)C[C@@H]3C)C[C@@H]2C)CC[C@H]([C@]2(C)CC[C@]3(C[C@H](O)[C@@H](C)[C@@H]([C@@H](C)[C@@H](OC)[C@H](C)C(=O)O)O3)O2)O1 [monensin A] | – | ~65% | – | – |
| COC(=O)Nc1nc2ccc(C(=O)c3cccs3)cc2[nH]1 [nocodazole] | reduced | ~75% | blocked to the same extent as for Gluc | – |
| tunicamycin | – | – | – | increase in spliced XBP-1 message ([1]; tunicamycin 3 μg/ml for 4 h): 9 fold; expression of GRP78 [6]: detected; decrease in Gluc secretion ([2]; tunicamycin 3 μg/ml for 4 h): over 90% |
